Legend:
[1] = molecular target: cloned human P2Y1 receptors (Homo sapiens (Human), UniProt P47900); test: Binding Assay B: Scintillation Proximity Assay (SPA) for P2Y1 binding; conditions: SPA, [33P] 2MeS-ADP displacement; read-out: P2Y1 Ki (nM) using binding assay B
Method in brief: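 Scintillation proximity readout of 0.3 nM [^33P] tracer displacement from receptor membranes (~15 fmol receptor, 1.7 μg protein). Binding ran 1 h at room temperature to completion; plates were then centrifuged and aqueous phase aspirated before counting.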

[2] = system: human platelet rich plasma (PRP); test: ADP induced platelet aggregation assay; conditions: Homo sapiens, Platelet, read-out: PA IC50 (μM) @ 10 μM ADP, platelet aggregation induced by 10 μM ADP, human PRP
Experimental: The ability of P2Y1 antagonists covered in the present invention to inhibit platelet aggregation induced by 10 μM ADP was tested using human platelet rich plasma (PRP) as described in Platelet Protocols: Research and Clinical Laboratory Procedures (White, M. M. et al., Academic Press (1999)). Human blood was collected in 30 μM (final concentration in blood) argatroban (GSK) as the anticoagulant at a ratio of 1 ml per 9 ml of blood. The PRP was isolated by centrifugation at 170 g for 12 minutes. The platelet poor plasma (PPP) was used as the blank for optical aggregometry. Compounds of the present invention in DMSO solution was preincubated with 250 μl PRP at 37° C. for 1 minute with stirring speed of 1000 rpm. Aggregation was initiated by addition of 2.5 μl of 1 mM ADP (Chrono-log, Havertown, Pa.) for a final ADP concentration of 10 μM. Platelet aggregation was monitored using Optical Aggregometer (Chrono-log, Havertown, Pa.) and the area under the curve (AUC) at 5 minute was measured. IC50 was calculated using vehicle control as 0% inhibition.

Chain of cloned human P2Y1 receptors (P47900 whole entry): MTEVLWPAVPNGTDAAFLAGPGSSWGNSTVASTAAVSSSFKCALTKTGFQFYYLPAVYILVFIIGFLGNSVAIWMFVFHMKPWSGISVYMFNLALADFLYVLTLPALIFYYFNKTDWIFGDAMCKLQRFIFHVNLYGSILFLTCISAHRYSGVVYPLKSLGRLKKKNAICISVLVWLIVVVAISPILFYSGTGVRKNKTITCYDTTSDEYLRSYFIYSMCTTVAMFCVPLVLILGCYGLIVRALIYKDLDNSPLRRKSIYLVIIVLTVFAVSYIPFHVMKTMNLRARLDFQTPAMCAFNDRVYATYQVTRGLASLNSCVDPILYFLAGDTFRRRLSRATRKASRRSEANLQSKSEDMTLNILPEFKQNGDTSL

Row | SMILES | Ki [1] | IC50 [2]
1 | CC(C)(C)CN1CCC2(CC1)CN(c1ccccc1NC(=O)Nc1nc3ccc(Cl)cc3s1)c1c(O)ccc(-c3nc4cccc(Cl)c4s3)c12 [Example 124, 1-(6-Chlorobenzo[d]thiazol-2-yl)-3-(2-(4-(7-chlorobenzo[d]thiazol-2-yl)-7-hydroxy-1′-neopentylspiro[indoline-3,4′-piperidin]-1-yl)phenyl)urea] | 51.5 nM | 1 µM
2 | CC(C)(C)CN1CCC2(CC1)CN(c1ccccc1NC(=O)Nc1nc3ccc(Cl)nc3s1)c1c(O)ccc(-c3nc4ccc(Cl)cc4s3)c12 [Example 125, 1-(2-(4-(6-Chlorobenzo[d]thiazol-2-yl)-7-hydroxy-1′-neopentylspiro[indoline-3,4′-piperidin]-1-yl)phenyl)-3-(5-chlorothiazolo[5,4-b]pyridin-2-yl)urea] | 21.6 nM | 0.9 µM
3 | CC(C)(C)CN1CCC2(CC1)CN(c1ccccc1NC(=O)Nc1nc3ccc(Cl)nc3s1)c1c(O)ccc(-c3nc4cc(F)ccc4s3)c12 [Example 126, 1-(5-Chlorothiazolo[5,4-b]pyridin-2-yl)-3-(2-(4-(5-fluorobenzo[d]thiazol-2-yl)-7-hydroxy-1′-neopentylspiro[indoline-3,4′-piperidin]-1-yl)phenyl)urea] | 13.1 nM | 0.4 µM
4 | COc1ccc2nc(-c3ccc(O)c4c3C3(CCN(CC(C)(C)C)CC3)CN4c3ccccc3NC(=O)Nc3csc(Cl)n3)sc2c1 [Example 128, 1-(2-Chlorothiazol-4-yl)-3-(2-(7-hydroxy-4-(6-methoxybenzo[d]thiazol-2-yl)-1′-neopentylspiro[indoline-3,4′-piperidin]-1-yl)phenyl)urea] | 8 nM | 0.2 µM
5 | COc1ccc2nc(-c3ccc(O)c4c3C3(CCN(CC(C)(C)C)CC3)CN4c3ccccc3NC(=O)Nc3csc(C(F)(F)F)n3)sc2c1 [Example 129, 1-(2-(7-Hydroxy-4-(6-methoxybenzo[d]thiazol-2-yl)-1′-neopentylspiro[indoline-3,4′-piperidin]-1-yl)phenyl)-3-(2-(trifluoromethyl)thiazol-4-yl)urea] | 8.7 nM | 0.7 µM
6 | COc1ccc2nc(-c3ccc(O)c4c3C3(CCN(CC(C)(C)C)CC3)CN4c3ccccc3NC(=O)Nc3ccc(OC(F)(F)F)cc3)sc2c1 [Example 130, 1-(2-(7-Hydroxy-4-(6-methoxybenzo[d]thiazol-2-yl)-1′-neopentylspiro[indoline-3,4′-piperidin]-1-yl)phenyl)-3-(4-(trifluoromethoxy)phenyl)urea] | 16.8 nM | 0.6 µM
7 | COc1ccc2nc(-c3ccc(O)c4c3C3(CCN(CC(C)(C)C)CC3)CN4c3ccccc3NC(=O)Nc3nc4ccc(Cl)cc4s3)sc2c1 [Example 131, 1-(6-Chlorobenzo[d]thiazol-2-yl)-3-(2-(7-hydroxy-4-(6-methoxybenzo[d]thiazol-2-yl)-1′-neopentylspiro[indoline-3,4′-piperidin]-1-yl)phenyl)urea] | 22.5 nM | 1 µM
8 | CC(C)(C)CN1CCC2(CC1)CN(c1ccccc1NC(=O)Nc1csc(C(F)(F)F)n1)c1c(O)ccc(-c3nc4ccc(F)cc4s3)c12 [Example 132, 1-(2-(4-(6-Fluorobenzo[d]thiazol-2-yl)-7-hydroxy-1′-neopentylspiro[indoline-3,4′-piperidin]-1-yl)phenyl)-3-(2-(trifluoromethyl)thiazol-4-yl)urea] | 12.4 nM | 0.7 µM
9 | CC(C)(C)CN1CCC2(CC1)CN(c1ccccc1NC(=O)Nc1ccc(OC(F)(F)F)cc1)c1c(O)ccc(-c3nc4cc(F)ccc4s3)c12 [Example 135, 1-(2-(4-(5-Fluorobenzo[d]thiazol-2-yl)-7-hydroxy-1′-neopentylspiro[indoline-3,4′-piperidin]-1-yl)phenyl)-3-(4-(trifluoromethoxy)phenyl)urea] | 21.7 nM | 0.6 µM
10 | CC(C)(C)CN1CCC2(CC1)CN(c1ccccc1NC(=O)Nc1ccc(OC(F)(F)F)cc1)c1c(O)cc(F)c(-c3nc4cc(Cl)ccc4s3)c12 [Example 137, 1-(2-(4-(5-Chlorobenzo[d]thiazol-2-yl)-5-fluoro-7-hydroxy-1′-neopentylspiro[indoline-3,4′-piperidin]-1-yl)phenyl)-3-(4-(trifluoromethoxy)phenyl)urea] | 44.7 nM | 0.4 µM
11 | CC(C)(C)CN1CCC2(CC1)CN(c1ccccc1NC(=O)Nc1nc3ccc(F)cc3s1)c1c(O)ccc(-c3nc4cc(F)ccc4s3)c12 [Example 138, 1-(6-Cluorobenzo[d]thiazol-2-yl)-3-(2-(4-(5-fluorobenzo[d]thiazol-2-yl)-7-hydroxy-1′-neopentylspiro[indoline-3,4′-piperidin]-1-yl)phenyl)urea] | 24.6 nM | 0.2 µM
12 | CC(C)(C)CN1CCC2(CC1)CN(c1ccccc1NC(=O)Nc1nc3ccc(F)cc3s1)c1c(O)cc(F)c(-c3nc4cc(Cl)ccc4s3)c12 [Example 140, 1-(2-(4-(5-Chlorobenzo[d]thiazol-2-yl)-5-fluoro-7-hydroxy-1′-neopentylspiro[indoline-3,4′-piperidin]-1-yl)phenyl)-3-(6-fluorobenzo[d]thiazol-2-yl)urea] | 52.4 nM | 0.6 µM
13 | CC(C)(C)CN1CCC2(CC1)CN(c1ccccc1NC(=O)Nc1nc3ccc(Cl)cc3s1)c1c(O)cc(F)c(-c3nc4cc(Cl)ccc4s3)c12 [Example 141, 1-(6-Chlorobenzo[d]thiazol-2-yl)-3-(2-(4-(5-chlorobenzo[d]thiazol-2-yl)-5-fluoro-7-hydroxy-1′-neopentylspiro[indoline-3,4′-piperidin]-1-yl)phenyl)urea] | 33.9 nM | 0.9 µM
14 | CC(C)(C)CN1CCC2(CC1)CN(c1ccccc1NC(=O)Nc1nc3ccc(Cl)nc3s1)c1c(O)ccc(-c3nc4ccc(F)cc4s3)c12 [Example 144, 1-(5-Chlorothiazolo[5,4-b]pyridin-2-yl)-3-(2-(4-(6-fluorobenzo[d]thiazol-2-yl)-7-hydroxy-1′-neopentylspiro[indoline-3,4′-piperidin]-1-yl)phenyl)urea] | 13 nM | 0.7 µM
15 | CC(C)(C)CN1CCC2(CC1)CN(c1ccccc1NC(=O)Nc1nc3ccc(Cl)cc3s1)c1c(O)ccc(-c3nc4ccc(F)cc4s3)c12 [Example 145, 1-(6-Chlorobenzo[d]thiazol-2-yl)-3-(2-(4-(6-fluorobenzo[d]thiazol-2-yl)-7-hydroxy-1′-neopentylspiro[indoline-3,4′-piperidin]-1-yl)phenyl)urea] | 18.4 nM | 0.6 µM
16 | COc1ccc2nc(NC(=O)Nc3ccccc3N3CC4(CCN(CC(C)(C)C)CC4)c4c(-c5nc6cc(F)ccc6s5)ccc(O)c43)sc2c1 [Example 146, 1-(2-(4-(5-Fluorobenzo[d]thiazol-2-yl)-7-hydroxy-1′-neopentylspiro[indoline-3,4′-piperidin]-1-yl)phenyl)-3-(6-methoxybenzo[d]thiazol-2-yl)urea] | 11.2 nM | 0.6 µM
17 | CC(C)(C)CN1CCC2(CC1)CN(c1ccccc1NC(=O)Nc1ccc(OC(F)(F)F)cc1)c1c(O)cc(F)c(-c3nc4ccc(F)cc4s3)c12 [Example 147, 1-(2-(5-Fluoro-4-(6-fluorobenzo[d]thiazol-2-yl)-7-hydroxy-1′-neopentylspiro[indoline-3,4′-piperidin]-1-yl)phenyl)-3-(4-(trifluoromethoxy)phenyl)urea] | 14.8 nM | 0.5 µM
18 | CC(C)(C)CN1CCC2(CC1)CN(c1ccccc1NC(=O)Nc1nc3ccc(Cl)cc3s1)c1c(O)ccc(-c3nc4cc(Cl)ccc4s3)c12 [Example 149, 1-(6-Chlorobenzo[d]thiazol-2-yl)-3-(2-(4-(5-chlorobenzo[d]thiazol-2-yl)-7-hydroxy-1′-neopentylspiro[indoline-3,4′-piperidin]-1-yl)phenyl)urea] | 26.8 nM | 0.9 µM
19 | COc1ccc2nc(NC(=O)Nc3ccccc3N3CC4(CCN(CC(C)(C)C)CC4)c4c(-c5nc6cc(Cl)ccc6s5)ccc(O)c43)sc2c1 [Example 150, 1-(2-(4-(5-Chlorobenzo[d]thiazol-2-yl)-7-hydroxy-1′-neopentylspiro[indoline-3,4′-piperidin]-1-yl)phenyl)-3-(6-methoxybenzo[d]thiazol-2-yl)urea] | 33.4 nM | 0.9 µM
20 | CC(C)(C)CN1CCC2(CC1)CN(c1ccccc1NC(=O)Nc1nc3ccc(Cl)nc3s1)c1c(O)cc(F)c(-c3ccc(F)cc3)c12 [Example 152] | 10.2 nM | 0.2 µM
21 | CC(C)(C)CN1CCC2(CC1)CN(c1ccccc1NC(=O)Nc1ccc(OC(F)(F)F)cc1)c1c(O)c(F)cc(-c3ccc(F)cc3)c12 [Example 153, 1-(2-(6-Fluoro-4-(4-fluorophenyl)-7-hydroxy-1′-neopentylspiro[indoline-3,4′-piperidin]-1-yl)phenyl)-3-(4-(trifluoromethoxy)phenyl)urea] | 11.5 nM | 0.4 µM
22 | CC(C)(C)CN1CCC2(CC1)CN(c1ccccc1NC(=O)Nc1ccc(OC(F)(F)F)cc1)c1c(O)c(F)cc(-c3ccc(C(F)(F)F)cc3)c12 [Example 154, 1-(2-(6-Fluoro-7-hydroxy-1′-neopentyl-4-(4-(trifluoromethyl)phenyl)spiro[indoline-3,4′-piperidine]-1-yl)phenyl)-3-(4-(trifluoromethoxy)phenyl)urea] | 38.8 nM | 0.4 µM
23 | CC(C)(C)CN1CCC2(CC1)CN(c1ccccc1NC(=O)Nc1ccc(OC(F)(F)F)cc1)c1c(O)cc(F)c(-c3ccc(F)cc3)c12 [Example 155, 1-(2-(5-Fluoro-4-(4-fluorophenyl)-7-hydroxy-1′-neopentylspiro[indoline-3,4′-piperidin]-1-yl)phenyl)-3-(4-(trifluoromethoxy)phenyl)urea] | 22.5 nM | 0.1 µM
24 | CC(C)(C)CN1CCC2(CC1)CN(c1ccccc1NC(=O)Nc1ccc(OC(F)(F)F)cc1)c1c(O)c(F)cc(-c3ccc(Cl)cc3)c12 [Example 156, 1-(2-(4-(4-Chlorophenyl)-6-fluoro-7-hydroxy-1′-neopentylspiro[indoline-3,4′-piperidin]-1-yl)phenyl)-3-(4-(trifluoromethoxy)phenyl)urea] | 20.2 nM | 0.2 µM

— patent publication US9428504B2, “7-hydroxy-spiropipiperidine indolinyl antagonists of P2Y1 receptor” (BRISTOL-MYERS SQUIBB COMPANY, priority 2012, dated 2016)
